Data reported in patent publication US5256548A, “Antiviral antibiotic BU-4344V” (Bristol-Myers Squibb Company, priority 1992, dated 1993).
In brackets after ≈: the same amount, converted by molar mass.

Experiments:
Vero cells [1] = conditions: dye-uptake assay, Vero cells without viral infection, 72 hours
Vero cells [2] = assay: Plaque reduction assay, minimal toxic dose (Vero cells); type: cell-based
Method: In vitro antiviral activity of BU-4344V was assessed using the herpes simplex virus type 1 (KOS strain) - Vero cell and influenza virus type A (Victoria strain) - Madin Darby canine kidney (MDCK) cell systems by the dye-uptake assay method [Antiviral Research, 3, 223-234 (1986)]. The cell suspension (200 μl ), containing 2×10^4 cells, was inoculated to each well of 96-well microplates and cultured at 37° C. for 48-72 hours under humidified 5% CO2 -95% air environment. The growth medium in each well was replaced with 250 μl of fresh medium (Eagle MEM without serum) containing BU-4344V at various doses, and then 50 μl medium containing approximately 10×TCID50 of the viruses was added to each well. For cytotoxicity tests, the same set of wells, without the viruses, were prepared. After 72 hours of incubation, the degree of inhibition of the viral-induced cytopathic effect and the drug-induced cytotoxicity were determined. […] The antiviral activity of BU-4344V was also determined using a conventional plaque reduction assay method.

[3] = system: Herpes Simplex Virus Type I; assay: Plaque reduction assay, herpes simplex virus (Vero cells); type: cell-based, herpes simplex virus type 1
[4] = system: herpes simplex virus type 1 (KOS strain); conditions: 72 h
[5] = system: influenza virus type A (Victoria strain); assay: Dye-uptake assay, inhibition of viral-induced cytopathic effect, influenza virus - MDCK cell system; type: cell-based; conditions: MDCK cells, 72 hours
Influenza Virus Type A = assay: Plaque reduction assay, influenza virus (MDCK cells); type: cell-based

| SMILES | TD50 (concentration exhibiting 50% cytotoxicity) (Vero cells [1]) | MTD (Minimal Toxic Dose) (Vero cells [2]) | ID50 [3] | ID50 (concentration showing 50% inhibition of the cytopathic effect) [4] | ID50 (concentration showing 50% inhibition of the cytopathic effect) [5] | ID50 (Influenza Virus Type A) |
| --- | --- | --- | --- | --- | --- | --- |
| Nc1nc2c(ncn2COCCO)c(=O)[nH]1 [Acyclovir, reference compound] | > 100 µg/mL | > 100 µg/mL | 0.25 µg/mL (≈ 1.11 µM) | 0.2 µg/mL | – | – |
| NC(=O)c1ncn([C@@H]2O[C@H](CO)[C@@H](O)[C@H]2O)n1 [Ribavirin, reference compound] | – | – | – | – | 10 µg/mL | 3.8 µg/mL (≈ 15.6 µM) |
